Results reported in article PMC3679022, “A Cancer Specific Cell-Penetrating Peptide, BR2, for the Efficient Delivery of an scFv into Cancer Cells” (PLoS ONE, 2013).

Tests used:
[1] = tested on: normal cells (HaCat, BJ and NIH 3T3); experiment: Confocal laser scanning microscopy of FITC-labeled peptide uptake, normal cells; assay type: cell-based, human, mouse; details: FITC-labeled peptide 5 µM, 30 min, 37°C, live unfixed cells
Description: (§1) To investigate the cell-penetrating ability and the intracellular distribution of the internalized peptides, live confocal microscopy was performed on three cancer lines (HeLa, HCT116 and B16/F10) and three normal cell lines (HaCat, BJ and NIH 3T3). Briefly, cells (2×10^5) were plated on a glass coverslip placed in a 6-well plate, grown overnight, and then incubated with FITC-labeled peptides (5 µM for each cell line) for 30 min. The cells were then rinsed three times with phosphate buffered saline (PBS, pH 7.4), and mounted on microscope slides with fluorescence mounting solution (Dako Corp, Carpinteria, CA). Colocalization of BR2 with lysosomes was observed by using LysoTracker Red DND-99 (Molecular Probe, Eugene, OR). To avoid the effects of fixation artifacts, involving both methanol and paraformaldehyde, cells were not fixed, [27]. The distribution of FITC-labeled peptides was analyzed using a confocal scanning laser Zeiss LSM 510 microscope (Jena, Germany) equipped with a 40× and 20× objective. Fluorophores were excited with an argon laser (488 nm) for FITC and a HeNe laser (543 nm) for LysoTracker Red.
(§2) (B,C) In vitro cytotoxicity of peptides.

[2] = tested on: cancer cells (HeLa, HCT116 and B16/F10); experiment: Confocal laser scanning microscopy of FITC-labeled peptide uptake, cancer cells; assay type: cell-based, human, mouse; details: FITC-labeled peptide 5 µM, 30 min, 37°C, live unfixed cells
Description: as §1, §2

## RAGLQFPVGRLLR [BR1]
[1]
  cellular uptake (confocal microscopy): negligible cellular uptake levels
[2]
  cellular uptake (confocal microscopy): negligible cellular uptake levels
